Measurements as given in patent publication EP1272854B1, “METHOD FOR DETECTING A HORMONE DISRUPTING ACTIVITY OF ENVIRONMENTAL POLLUTANTS” (Meulenberg, Petronella Mariette Maria, priority 2000, dated 2001).

What was measured:
[1] = tested on: SHBG (Sex Hormone Binding Globulin) from serum of pregnant volunteers; test: SHBG assay: competitive displacement of tritiated oestradiol from antibody-captured SHBG on microtiter plate; set-up: species or system human; conditions: for displacement of oestradiol / affinity to SHBG (in words): discussion of the SHBG assay results; for Activity (score for the displacement of tritiated oestradiol): displacement of 3H-oestradiol from SHBG, related to testosterone standard curve
Description: Sub figure 1a: HPAA = Hypothalamus-Pituitary-Adrenal-Axis; CRH = Corticotrophin Releasing Hormone; ACTH = Adrenocorticotrophic Hormone; Adrenal = adrenal gland. Sub figure 1b: HPTeA = Hypothalamus-Pituitary-Testis-Axis; LHRH = Luteinizing Hormone Releasing Hormone; LH = Luteinizing Hormone. […] The values are the averages of 11 measurements. […] Plotted out is the bound fraction as a percentage of the total quantity of added ^3H-E2 against the concentration of the test compound.
The SHBG assay was developed for detecting a possible oestrogenic activity of xenobiotic substances. As main component use was made of SHBG from serum of pregnant volunteers in the third trimester of pregnancy. Additionally use was made of commercially available polyclonal anti-SHBG antibody (DAKO) to isolate SHBG from serum on a microtiter plate. […] As standard testosterone (Sigma-Aldrich B.V., Zwijndrecht, the Netherlands) was used in a concentration series.
All compounds to be analyzed are related to the testosterone standard curve. For the analysis of an oestrogenic effect various compounds were tested in the SHBG assay, including endogenous steroids, pharmaceutical substances, pesticides and industrial waste products (alkyl phenols). […]

[2] = tested on: SHBG (post partum serum); conditions: competition with 3H-5-alpha-DHT; cited from earlier work
[3] = tested on: SHBG; conditions: cited from earlier work

Compound	displacement of oestradiol / affinity to SHBG (in words) [1]	Activity (score for the displacement of tritiated oestradiol) [1]	binding to SHBG [2]	other results
C#CC1(O)CC[C@H]2[C@@H]3CCC4=CC(=O)CC[C@@H]4[C@H]3CC[C@@]21CC (mixture of isomers) [Norgestrel, reference compound]	high affinity	+ + (strong displacement)		
O=C(O)COc1ccc(Cl)cc1Cl [2.4-D]		+ (moderate displacement)		
C[C@H]1C[C@@H]2[C@H]([C@@H](O)C[C@@]3(C)[C@H]2CC[C@]3(O)C(=O)CO)[C@@]2(C)C=CC(=O)C=C12 [6-alpha-methylprednisolone, reference compound]		+ (moderate displacement)		
CNC(=O)O/N=C/C(C)(C)SC [Aldicarb]	ambiguous result	+/-		
C[C@]12CC[C@@H](O)C[C@@H]1CC[C@@H]1[C@@H]2CC[C@]2(C)C(=O)CC[C@@H]12 [Andosterone, reference compound]		+ (moderate displacement)		
CCNc1nc(Cl)nc(NC(C)C)n1 [Atrazine]	no activity at all	- (no displacement)	not found	
CC(C)(c1ccc(O)cc1)c1ccc(O)cc1 [Bisphenol-A]	remarkably strong effect	+ + (strong displacement)		
CC/C(=C(/CC)c1ccc(O)cc1)c1ccc(O)cc1 [DES, reference compound]	high affinity	+ + (strong displacement)		
C[C@]12CC[C@H](O)CC1=CC[C@@H]1[C@@H]2CC[C@]2(C)C(=O)CC[C@@H]12 [Dehydro-iso-andosterone, reference compound]		+ (moderate displacement)		
CN(C)S(=O)(=O)N(SC(F)(Cl)Cl)c1ccccc1 [Dichlofluanide]		+ (moderate displacement)		
O=C(O)CNCP(=O)(O)O [Glyphosate]	ambiguous result	+/-		
CCCCC(O)(Cn1cncn1)c1ccc(Cl)cc1Cl (centres unmarked) [Hexaconazole]	ambiguous result	+/-		
CCOC(=O)CC(SP(=S)(OC)OC)C(=O)OCC (centres unmarked) [Malathion]		+ (moderate displacement)		
C[C@]12CC[C@@H]3c4ccc(O)cc4CC[C@H]3[C@@H]1CC[C@@H]2O [Oestradiol]				affinity for SHBG ([3]; association constant, see Dunn et al. 1981): 7e-10 M⁻¹
CC1(C)C(C=C(Cl)Cl)C1C(=O)OCc1cccc(Oc2ccccc2)c1 (centres unmarked) [Permethrin]	clear displacement	+ + (strong displacement)		
CCNc1nc(Cl)nc(NCC)n1 [Simazine]	ambiguous result	+ /-		
CC(C)(C)C(O)(CCc1ccc(Cl)cc1)Cn1cncn1 (centres unmarked) [Tebuconazole]	ambiguous result	+/-		
C[C@]12CC[C@H]3[C@@H](CCC4=CC(=O)CC[C@@]43C)[C@@H]1CC[C@@H]2O [Testosterone]		+ + (strong displacement)		Kd ([3]; see Dunn et al. 1981, read-out: affinity for SHBG (converted)): 62.5 nM; affinity to SHBG relative to oestradiol ([3]; testosterone versus oestradiol): approximately 3 times
C=CC1(C)OC(=O)N(c2cc(Cl)cc(Cl)c2)C1=O (centres unmarked) [Vinclozolin]		+ (moderate displacement)		
ClC1=C(Cl)[C@]2(Cl)[C@@H]3[C@@H]4C[C@@H]([C@H]5O[C@@H]45)[C@@H]3[C@@]1(Cl)C2(Cl)Cl [dieldrin]			not found	
COc1ccc(C(c2ccc(OC)cc2)C(Cl)(Cl)Cl)cc1 [methoxychlor]			not found	
Clc1ccc(C(c2ccccc2Cl)C(Cl)(Cl)Cl)cc1 (centres unmarked) [o,p'-DDT]			showed binding	
ClC(Cl)=C(c1ccc(Cl)cc1)c1ccc(Cl)cc1 [p,p'-DDE]			not found	
Clc1ccc(C(c2ccc(Cl)cc2)C(Cl)(Cl)Cl)cc1 [p,p'-DDT]			not found	
Oc1c(Cl)c(Cl)c(Cl)c(Cl)c1Cl [pentachlorophenol]			showed binding	
Nonylphenol	remarkably strong effect	+ + (strong displacement)	showed binding	
